Source: US8288552B2, “Dihydropyridone amidesas P2X7 modulators” (Roche Palo Alto LLC, priority 2008, dated 2012)

Biological target: T1, P2X7 (UniProt Q99572)
T1 sequence (Q99572 1-595): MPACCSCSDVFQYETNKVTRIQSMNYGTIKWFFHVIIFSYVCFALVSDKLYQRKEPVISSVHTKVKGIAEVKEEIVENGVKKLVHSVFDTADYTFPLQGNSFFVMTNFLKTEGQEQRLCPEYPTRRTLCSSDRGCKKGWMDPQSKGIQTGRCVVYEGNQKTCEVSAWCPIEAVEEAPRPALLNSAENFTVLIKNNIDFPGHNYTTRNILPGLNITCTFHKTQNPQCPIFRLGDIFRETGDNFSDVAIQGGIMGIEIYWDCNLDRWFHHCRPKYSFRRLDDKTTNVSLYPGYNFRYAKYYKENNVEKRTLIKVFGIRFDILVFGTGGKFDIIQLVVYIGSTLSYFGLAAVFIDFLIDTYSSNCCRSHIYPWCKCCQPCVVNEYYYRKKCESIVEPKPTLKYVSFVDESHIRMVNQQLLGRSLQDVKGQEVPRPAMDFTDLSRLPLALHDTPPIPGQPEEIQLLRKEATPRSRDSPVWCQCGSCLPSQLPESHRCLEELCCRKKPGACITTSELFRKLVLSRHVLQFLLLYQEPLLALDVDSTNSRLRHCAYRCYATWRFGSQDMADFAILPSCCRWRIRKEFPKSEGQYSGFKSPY
Test: P2X7 pKi of Table 1
Type: cell-based
In short: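 Human P2X7 in 1321N1 cells and rat P2X7 in HEK293 cells, loaded with fluo-3 for 1 hr at 37° C, then exposed to antagonist for 20 min at room temperature. BzATP agonist was used at 100 μM final (human) or 5 μM final (rat), with fluorescence read for 5 min. The response was normalized to maximal fluorescence evoked by 5 μM ionomycin.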

Structure (SMILES) | pKi
COc1cc(NC(=O)C2=CNC(=O)CC2c2cccc(F)c2)c(C)cc1F (stereo not shown) [Compound 64, 4-(3-Fluoro-phenyl)-6-oxo-1,4,5,6-tetrahydro-pyridine-3-carboxylic acid(4-fluoro-5-methoxy-2-methyl-phenyl)-amide] | 8.17
COc1cc(NC(=O)C2=CNC(=O)C[C@H]2c2ccc(F)cc2)ccc1F [Compound 108, (S)-4-(4-Fluoro-phenyl)-6-oxo-1,4,5,6-tetrahydro-pyridine-3-carboxylic acid(4-fluoro-3-methoxy-phenyl)-amide] | 6.11
Cc1cc(Cl)c(OCCO)cc1NC(=O)C1=CNC(=O)C[C@H]1c1cccc(F)c1 [Compound 72, (S)-4-(3-Fluoro-phenyl)-6-oxo-1,4,5,6-tetrahydro-pyridine-3-carboxylic acid[4-chloro-5-(2-hydroxy-ethoxy)-2-methyl-phenyl]-amide] | 7.8375
Cc1c(Cl)cccc1NC(=O)C1=CNC(=O)C[C@H]1c1ccc(F)cc1 [Compound 94, (S)-4-(4-Fluoro-phenyl)-6-oxo-1,4,5,6-tetrahydro-pyridine-3-carboxylic acid(3-chloro-2-methyl-phenyl)-amide] | 7.83
COc1cc(NC(=O)C2=CNC(=O)CC2c2ccc(F)cc2)ccc1C (stereo not shown) [Compound 11, 4-(4-Fluoro-phenyl)-6-oxo-1,4,5,6-tetrahydro-pyridine-3 carboxylic acid(3-methoxy-4-methyl-phenyl)-amide] | 6.03
O=C1CC(c2ccc(F)cc2)C(C(=O)Nc2cc3c(cc2Br)OCCO3)=CN1 (stereo not shown) [Compound 138, 4-(4-Fluoro-phenyl)-6-oxo-1,4,5,6-tetrahydro-pyridine-3-carboxylic acid(7-bromo-2,3-dihydro-benzo[1,4]dioxin-6-yl)-amide] | 6.69
Cc1cc(C)c(Br)c(NC(=O)C2=CNC(=O)CC2c2ccc(F)cc2)c1 (stereo not shown) [Compound 49, 4-(4-Fluoro-phenyl)-6-oxo-1,4,5,6-tetrahydro-pyridine-3-carboxylic acid(2-bromo-3,5-dimethyl-phenyl)-amide] | 7.48
Cc1cc(Cl)c(CCO)cc1NC(=O)C1=CNC(=O)C[C@H]1c1ccc(F)cc1 [Compound 112, (S)-4-(4-Fluoro-phenyl)-6-oxo-1,4,5,6-tetrahydro-pyridine-3-carboxylic acid[4-chloro-5-(2-hydroxy-ethyl)-2-methyl-phenyl]-amide] | 7.52
O=C1C[C@@H](c2ccc(F)cc2)C(C(=O)Nc2cc(OCCO)c(Cl)cc2Br)=CN1 [Compound 76, (S)-4-(4-Fluoro-phenyl)-6-oxo-1,4,5,6-tetrahydro-pyridine-3-carboxylic acid[2-bromo-4-chloro-5-(2-hydroxy-ethoxy)-phenyl]-amide] | 7.063
COc1cc(NC(=O)C2=CNC(=O)CC2c2cccc(F)c2)c(Br)cc1C (stereo not shown) [Compound 5, 4-(3-Fluoro-phenyl)-6-oxo-1,4,5,6-tetrahydro-pyridine-3-carboxylic acid(2-bromo-5-methoxy-4-methyl-phenyl)-amide] | 6.726
Cc1cc(C)c(Br)c(NC(=O)C2=CNC(=O)C[C@@H]2c2ccc(F)cc2)c1 [Compound 59, (R)-4-(4-Fluoro-phenyl)-6-oxo-1,4,5,6-tetrahydro-pyridine-3-carboxylic acid(2-bromo-3,5-dimethyl-phenyl)-amide] | 7.57
COC[C@@H](O)COc1cc(NC(=O)C2=CN(C)C(=O)C[C@H]2c2ccc(F)cc2)c(C)cc1Cl [Compound 147, (S)-4-(4-Fluoro-phenyl)-1-methyl-6-oxo-1,4,5,6-tetrahydro-pyridine-3-carboxylic acid[4-chloro-5-((S)-2-hydroxy-3-methoxy-propoxy)-2-methyl-phenyl]-amide] | 5.85
Cc1cccc(NC(=O)C2=CNC(=O)CC2c2ccc(F)cc2)c1C (stereo not shown) [Compound 37, 4-(4-Fluoro-phenyl)-6-oxo-1,4,5,6-tetrahydro-pyridine-3-carboxylic acid(2,3-dimethyl-phenyl)-amide] | 7.12
